{"source": "patent US10149473B2", "about": "“Aminoindanes amides having a high fungicidal activity and their phytosanitary compositions” (STITCHING I-F PRODUCT COLLABORATION, priority 2010, dated 2018)", "key": {"[1]": {"tested_on": "Erysiphe graminis", "assay": "Fungicidal activity in preventive application (5 days) against Erysiphe graminis on wheat", "format": "in vivo, Erysiphe graminis on wheat (Salgemma variety)", "conditions": "125 ppm, leaf spray, infection 5 days after treatment, evaluation after 12 days, percentage scale 100 = healthy plant, 0 = completely infected plant; for Activity NT (parts which had developed during the test): non-treated parts (NT)", "experimental": "Determination of the Fungicidal Activity in Preventive Application (5 Days) Against Erysiphe graminis on Wheat.\n(§1) Leaves of wheat plants of the Salgemma variety, grown in pots in a conditioned environment kept at 20° C. and 70% of relative humidity (R.H.), were treated by spraying on both sides of the leaves with the compounds under examination, dispersed in hydroacetonic solutions at 20% by volume of acetone.\nAfter remaining 5 days in a conditioned environment, the plants were infected under dry conditions by shaking over them, in order to distribute the inoculum, plants previously infected by Erysiphe graminis.\nThe plants were then maintained in the same cell, in a humidity-saturated environment and at a temperature ranging from 18 to 24° C. for 12 days.\nAt the end of this period, the external symptoms of the pathogen appeared and it was therefore possible to proceed with the evaluation of the intensity of the infection, on both the parts treated directly with the products (T), and also on the parts which had developed during the test (NT), by means of a visible percentage evaluation scale of the area of affected leafs; the scale comprises, as extremes, the value 100 (healthy plant) and the value 0 (completely infected plant)."}, "[2]": {"tested_on": "wheat plants", "assay": "Phytotoxicity (percentage of leaf necrosis) induced on wheat plants", "format": "in vivo, wheat (Salgemma variety)", "conditions": "125 ppm on wheat, scale 0 = completely healthy plant to 100 = completely necrotized plant", "experimental": "as §1\nAt the same time, the phytotoxicity was evaluated (percentage of leaf necrosis) induced on the wheat plants by the application of the products: in this case, the evaluation scale varies from 0 (completely healthy plant) to 100 (completely necrotized plant)."}}}
{"smiles": "CC1CC(C)(C)c2cccc(NC(=O)c3cn(C)nc3C(F)F)c21", "note": "(stereo not drawn) [CR-1, 3-difluoromethyl-1-methyl-N-(1,1,3-trimethyl-4-indanyl)-4-pyrazolecarboxamide]", "values": [{"measurement": "Activity NT (parts which had developed during the test)", "setting": "[1]", "result": 65}, {"measurement": "Activity T (parts treated directly with the products)", "setting": "[1]", "result": 70}, {"measurement": "Phytotoxicity", "setting": "[2]", "result": 10}]}
{"smiles": "Cc1c(C(=O)Nc2ccc(F)c3c2CCC3(C)C)c(C(F)(F)F)nn1C", "note": "[CR-2, 1,5-dimethyl-3-trifluoro-methyl-N-(1,1-dimethyl-7-fluoro-4-indanyl)-4-pyrazolecarboxamide]", "values": [{"measurement": "Activity NT (parts which had developed during the test)", "setting": "[1]", "result": 15}, {"measurement": "Activity T (parts treated directly with the products)", "setting": "[1]", "result": 25}, {"measurement": "Phytotoxicity", "setting": "[2]", "result": 0}]}
{"smiles": "Cc1nn(C)c(C)c1C(=O)Nc1c(F)ccc2c1CCC2(C)C", "note": "[CR-3, 1,3,5-trimethyl-N-(1,1-dimethyl-5-fluoro-4-indanyl)-4-pyrazolecarboxamide]", "values": [{"measurement": "Activity NT (parts which had developed during the test)", "setting": "[1]", "result": 0}, {"measurement": "Activity T (parts treated directly with the products)", "setting": "[1]", "result": 10}, {"measurement": "Phytotoxicity", "setting": "[2]", "result": 0}]}
{"smiles": "CC1CC(C)(C)c2c(F)ccc(NC(=O)c3cn(C)nc3C(F)F)c21", "note": "(stereo not drawn) [Compound N. 1, 3-difluoromethyl-N-(7-fluoro-1,1,3-trimethyl-4-indanyl)-1-methyl-4-pyrazolecarboxamide]", "values": [{"measurement": "Activity NT (parts which had developed during the test)", "setting": "[1]", "result": 90}, {"measurement": "Activity T (parts treated directly with the products)", "setting": "[1]", "result": 95}, {"measurement": "Phytotoxicity", "setting": "[2]", "result": 0}]}
